≈ marks a conversion by molar mass, not a printed value. Residues, ends and D or L forms follow the SMILES beside them. *: point of attachment. X1 = O=c1[nH]c(N*)nc2c1ncn2COCCO
Experiments:
Dipeptidyl peptidase 4 [1] = target: Dipeptidyl peptidase 4 (Bos taurus, UniProt P81425); assay: Prodrug conversion assessed as dipeptidyl peptidase 4-mediated ACV formation in bovine serum at 50 uM after 2 hrs by HPLC analysis; type: ADME; details: cattle
[2] = Prodrug conversion in PBS buffer assessed as ACV formation at 50 uM after 2 hrs by HPLC analysis; type: ADME
Dipeptidyl peptidase 4 [3] = target: T1, Dipeptidyl peptidase 4 (Homo sapiens, UniProt P27487); assay: Prodrug conversion assessed as dipeptidyl peptidase 4-mediated ACV formation in human serum at 50 uM after 2 hrs by HPLC analysis; type: ADME
T1 sequence (P27487 whole entry): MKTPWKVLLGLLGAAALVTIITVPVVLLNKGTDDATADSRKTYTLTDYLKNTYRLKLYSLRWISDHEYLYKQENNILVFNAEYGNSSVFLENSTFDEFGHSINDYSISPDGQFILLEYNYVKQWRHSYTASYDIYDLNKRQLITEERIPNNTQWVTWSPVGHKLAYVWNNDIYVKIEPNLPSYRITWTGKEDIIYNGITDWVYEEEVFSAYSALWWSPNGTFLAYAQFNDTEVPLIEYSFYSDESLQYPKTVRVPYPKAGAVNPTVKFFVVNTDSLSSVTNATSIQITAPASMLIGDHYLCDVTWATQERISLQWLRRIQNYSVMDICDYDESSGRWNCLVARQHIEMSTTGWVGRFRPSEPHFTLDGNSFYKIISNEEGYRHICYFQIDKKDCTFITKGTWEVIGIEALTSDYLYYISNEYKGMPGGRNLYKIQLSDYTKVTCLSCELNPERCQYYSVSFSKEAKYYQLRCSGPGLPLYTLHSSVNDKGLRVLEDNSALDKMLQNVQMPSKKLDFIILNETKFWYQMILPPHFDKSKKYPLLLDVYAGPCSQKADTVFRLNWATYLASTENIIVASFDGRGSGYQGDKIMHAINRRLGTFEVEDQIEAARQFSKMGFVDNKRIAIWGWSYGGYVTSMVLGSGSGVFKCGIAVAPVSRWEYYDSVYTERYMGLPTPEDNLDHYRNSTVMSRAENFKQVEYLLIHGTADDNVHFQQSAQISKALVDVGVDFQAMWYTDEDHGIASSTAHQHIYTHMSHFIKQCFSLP

Human alphaherpesvirus 2 = assay: Antiviral activity against Herpes simplex virus 2 G infected in HEL cells assessed as inhibition of virus-induced cytopathicity; type: functional, organism-based; details: Human alphaherpesvirus 2, strain G
Dipeptidyl peptidase 4 [4] = target: T1, Dipeptidyl peptidase 4; assay: Prodrug conversion assessed as dipeptidyl peptidase 4-mediated ACV formation in human serum at 50 uM after 24 hrs by HPLC analysis; type: ADME
[5] = Solubility of the compound in deionized water at pH 5.5 after overnight incubation by HPLC analysis; type: physicochemical
Human alphaherpesvirus 1 [6] = assay: Antiviral activity against thymidine kinase-deficient ACV-resistant Herpes simplex virus 1 KOS infected in HEL cells assessed as inhibition of virus-induced cytopathicity; type: functional, organism-based; details: Human alphaherpesvirus 1, KOS
Dipeptidyl peptidase 4 [7] = target: T1, Dipeptidyl peptidase 4; assay: Prodrug conversion assessed as dipeptidyl peptidase 4-mediated ACV formation in human serum at 50 uM after 1 hr by HPLC analysis; type: ADME
[8] = Prodrug conversion in PBS buffer assessed as ACV formation at 50 uM after 24 hrs by HPLC analysis; type: ADME
[9] = Chemical stability of the compound in sodium phosphate buffer at pH 3.2 after 6 hrs; type: physicochemical; details: pH 3.2, 6 h
Human alphaherpesvirus 1 [10] = assay: Antiviral activity against Herpes simplex virus 1 KOS infected in HEL cells assessed as inhibition of virus-induced cytopathicity; type: functional, organism-based; details: Human alphaherpesvirus 1, KOS
[11] = Oral bioavailability in human; type: ADME, organism-based; details: in vivo
Dipeptidyl peptidase 4 [12] = target: T1, Dipeptidyl peptidase 4; assay: Prodrug conversion assessed as human dipeptidyl peptidase 4-mediated Val-ACV formation at 50 uM after 24 hrs by HPLC analysis; type: ADME; details: isolated protein

Chain of Dipeptidyl peptidase 4 (Bos taurus, UniProt P81425) (P81425 whole entry): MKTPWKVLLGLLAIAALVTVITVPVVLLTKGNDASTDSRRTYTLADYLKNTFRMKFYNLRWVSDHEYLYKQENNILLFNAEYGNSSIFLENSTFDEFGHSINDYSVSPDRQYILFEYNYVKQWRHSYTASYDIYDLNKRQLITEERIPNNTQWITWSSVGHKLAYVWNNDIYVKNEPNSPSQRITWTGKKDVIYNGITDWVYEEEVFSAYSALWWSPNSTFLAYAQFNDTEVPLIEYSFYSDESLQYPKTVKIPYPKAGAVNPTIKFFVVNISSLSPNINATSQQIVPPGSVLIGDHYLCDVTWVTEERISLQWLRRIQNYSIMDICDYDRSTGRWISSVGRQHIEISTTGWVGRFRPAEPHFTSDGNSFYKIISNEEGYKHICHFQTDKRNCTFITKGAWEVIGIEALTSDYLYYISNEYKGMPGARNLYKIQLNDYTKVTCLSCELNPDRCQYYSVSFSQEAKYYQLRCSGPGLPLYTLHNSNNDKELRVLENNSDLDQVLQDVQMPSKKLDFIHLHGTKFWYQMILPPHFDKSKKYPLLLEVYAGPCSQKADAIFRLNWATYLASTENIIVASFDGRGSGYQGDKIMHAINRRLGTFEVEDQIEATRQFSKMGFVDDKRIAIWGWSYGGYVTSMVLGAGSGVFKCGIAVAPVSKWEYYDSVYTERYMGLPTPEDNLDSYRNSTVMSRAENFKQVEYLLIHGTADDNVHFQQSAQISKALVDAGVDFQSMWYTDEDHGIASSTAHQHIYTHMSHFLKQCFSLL

Row | SMILES | Drug metabolism (Dipeptidyl peptidase 4 [1]) | Drug metabolism [2] | Drug metabolism (Dipeptidyl peptidase 4 [3]) | EC50 (Human alphaherpesvirus 2) | Drug metabolism (Dipeptidyl peptidase 4 [4]) | solubility [5] | EC50 (Human alphaherpesvirus 1 [6]) | Drug metabolism (Dipeptidyl peptidase 4 [7]) | Drug metabolism [8] | Stability [9] | EC50 (Human alphaherpesvirus 1 [10]) | bioavailability [11] | Drug metabolism (Dipeptidyl peptidase 4 [12])
1 | CC(C)[C@H](N)C(=O)OCCOCn1cnc2c(=O)[nH]c(N)nc21 [VALACYCLOVIR] | Active | Active | Active | – | – | – | – | – | – | – | – | – | –
2 | CC(C)[C@H](N)C(=O)N1CCC[C@H]1C(=O)N[C@H](C(=O)N1CCC[C@H]1C(=O)Nc1nc2c(ncn2COCCO)c(=O)[nH]1)C(C)C (H-VPVP-X1) | – | – | – | 4.9 µM | Active | 22.9 mg/mL (≈ 37 mM) | 73 µM | Active | Active | Stable | 1.8 µM | – | –
3 | Nc1nc2c(ncn2COCCO)c(=O)[nH]1 [ACYCLOVIR] | – | – | – | 0.5 µM | – | 1.29 mg/mL (≈ 5.73 mM) | 18 µM | – | – | – | – | 10% | –
4 | CC(C)[C@H](N)C(=O)N1CCC[C@H]1C(=O)N[C@H](C(=O)OCCOCn1cnc2c(=O)[nH]c(N)nc21)C(C)C | – | – | – | 1.6 µM | – | 12.2 mg/mL (≈ 23.4 mM) | 32 µM | – | Not Active | Stable | 0.6 µM | – | Active

Source: ChEMBL document CHEMBL3085731, “Novel water-soluble prodrugs of acyclovir cleavable by the dipeptidyl-peptidase IV (DPP IV/CD26) enzyme” (Eur J Med Chem, 2013)
